Reference: paper PMC8510124, “Design, Synthesis, Biological Evaluation and In Silico Study of Benzyloxybenzaldehyde Derivatives as Selective ALDH1A3 Inhibitors” (Molecules, 2021)

Key:
ALDH1A3 [1] = molecular target: T1, ALDH1A3 (Homo sapiens, UniProt P47895); experiment: fluorimetric NADH assay, single point […], […] hexanal (near Km); assay type: biochemical; settings: read-out: Remaining Activity ± SE (%) at 10 μM Compound / ALDH1A3 / [S] near Km (10 μM Hex)
T1 construct: recombinant, N-terminal (His)6 tag
T1 sequence (P47895 2-512): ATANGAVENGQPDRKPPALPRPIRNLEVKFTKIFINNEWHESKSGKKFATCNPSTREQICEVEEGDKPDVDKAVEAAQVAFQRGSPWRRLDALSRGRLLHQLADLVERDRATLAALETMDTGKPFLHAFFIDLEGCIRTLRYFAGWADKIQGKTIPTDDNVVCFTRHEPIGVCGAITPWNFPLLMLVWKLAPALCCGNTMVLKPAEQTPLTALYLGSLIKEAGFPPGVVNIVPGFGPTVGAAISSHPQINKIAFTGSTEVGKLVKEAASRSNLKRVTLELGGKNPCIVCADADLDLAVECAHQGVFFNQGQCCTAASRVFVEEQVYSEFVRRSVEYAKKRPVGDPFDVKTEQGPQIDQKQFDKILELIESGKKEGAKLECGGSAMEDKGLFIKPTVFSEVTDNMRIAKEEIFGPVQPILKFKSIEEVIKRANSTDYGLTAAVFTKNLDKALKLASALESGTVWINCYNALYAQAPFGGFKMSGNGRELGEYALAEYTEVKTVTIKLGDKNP

ALDH1A3 [2] = molecular target: T1, ALDH1A3; experiment: fluorimetric NADH dehydrogenase assay, […] hexanal, IC50 curve; assay type: biochemical; settings: read-out: IC50 (μM) ± SE ALDH1A3

| remaining activity at 10 µM (ALDH1A3 [1]) [%] | IC50 (ALDH1A3 [2]) [µM] | Structure (SMILES) |
| --- | --- | --- |
| 21.07 ± 0.1 | – | COc1cc(C=O)ccc1OC(=O)c1ccc(Cl)cc1 [ABMM-1, 4-Formyl-2-methoxyphenyl 4-Chlorobenzoate] |
| – | 0.23 ± 0.05 | O=Cc1ccc(OCc2ccc(Cl)cc2)cc1 [ABMM-15, 4-((4-Chlorobenzyl)oxy)benzaldehyde] |
| – | 1.29 ± 0.1 | COc1cc(C=O)ccc1OCc1ccc(Cl)cc1 [ABMM-16, 4-((4-Chlorobenzyl)oxy)-3-methoxybenzaldehyde] |
| 16 ± 3.4 | – | COc1cc(C=O)cc(OC)c1OC(=O)c1ccc(F)cc1 [ABMM-18, 4-Formyl-2,6-dimethoxyphenyl 4-Fluorobenzoate] |
